Key:
[1] = test system: KLK2, KLK3, and KLK14; test: Streptavidin blotting of LNCaP-K14 conditioned media after treatment with biotinylated ABPs; assay type: biochemical, human; details: CM of LNCaP-K14 cells, 10 nM DHT and 200 nM Dox; 1 h; concentration-dependent labeling
Method: With ABPs for KLK2, KLK3, and KLK14 in hand, we next addressed selective readouts of KLK activities in a complex biological system. Compounds 20, 31, and 39 were incubated with CM obtained from LNCaP-K14 cells, in which KLK14 expression has been placed under the control of a doxycycline-inducible promoter, stimulated with 10 nM DHT and 200 nM doxycycline (Dox).[15] […] In line with previous reports KLK14 appears as a double band due to protein glycosylation.[15],[39] Selective covalent modification of KLK2, KLK3, and KLK14 by 31, 20, and 39, respectively, was confirmed by streptavidin enrichment and immunoblotting (Figures S19 and S20). In the following experiments, biotinylated ABPs (bABPs) 31, 20, and 39 are named KLK2_bABP, KLK3_bABP, and KLK14_bABP, respectively.
FBS) were seeded onto the bone matrix. As a control the same number of LNCaP cells were seeded in a T175 plate lacking osteoblast cells. After 12 h, the media was aspirated, and the co-culture was incubated with serum-free RPMI media (0 % FBS and phenol red-free) for a further 48 h. After 48 h the media was collected, passed through a 0.2 μm syringe filter and stored at – 80 °C until needed. Indirect Co-culture – After 6 weeks, the media was aspirated, and the differentiated osteoblasts were incubated with serum-free RPMI media (0 % FBS and phenol red-free) for a further 48 h. After 48 h the media was collected, passed through a 0.2 μm syringe filter and then added to a T175 plate of LNCaP cells grown to 80 % confluency and hormone starved for 24 h in RPMI media supplemented with 5 % charcoal stripped FBS. […]
The protein concentration of the homogenate was measured using the DC Protein Assay (BioRad), following the manufacturer’s instructions. […]
Preparation of conditioned media: Samples of conditioned media were removed from – 80 °C storage and concentrated by centrifugation (3000 g, 10 °C) in a 3 KDa molecular weight cut-off spin filter (Amicon) for approximately 3 h. […] The protein concentration of the media was measured using the DC Protein Assay (BioRad), following the manufacturer’s instructions. […]

[2] = test system: KLK activome (KLK2, KLK3, KLK14) in LNCaP-K14 cells; test: Residual KLK activity in conditioned media of bABP-treated LNCaP-K14 cells, read out with fABP cocktail; assay type: cell-based, human; details: 1 μM bABP co-incubated with 10 nM DHT and 200 nM Dox for 48 h
Description: The data presented above provide evidence that KLK activity in PCa is regulated by the AR at a level beyond simple changes in expression and raise the possibility that KLK activities may be actionable targets for therapeutic intervention at different disease stages, in particular during PCa metastasis to bone. However, KLKs are predicted to form complex proteolytic networks and it is often not clear which protease(s) should be inhibited for maximum phenotypic response in a particular disease setting. […] To enable dissection of the PCa KLK activome directly in LNCaP cells, we further expanded the KLK probe toolbox by synthesizing KLK2_fABP (42) and KLK14_fABP (43) (Figure 6A and Figure S2), fluorescent ABP (fABP) analogues of KLK2_bABP and KLK14_bABP bearing dyes fluorescing at discrete wavelengths, which retain excellent potency and selectivity for KLK2 and KLK14, respectively (Figure S25). KLK2_fABP and KLK14_fABP were combined with KLK3-selective fABP 21 (KLK3_fABP) in an “fABP cocktail” to a final concentration of 1 μM each and incubated for 20 min with CM obtained from LNCaP-WT, LNCaP-mK14, or LNCaP-K14 cells following 48 h treatment with 10 nM DHT to enable simultaneous multicolor readout of KLK2, KLK3, and KLK14 activity. […] However, upon Dox-induced KLK14 expression in DHT-treated LNCaP-K14 cells a significant increase in the activity of all three KLKs was evident (see Figure 6B and Figure S26 for gel quantification). […] Residual KLK activity in CM was then assessed using the fABP cocktail (Figure 6B).
Figure 6 Dissecting the KLK activome in LNCaP cells. […] (B) KLK activity profiling by in-gel fluorescence of conditioned media obtained from LNCaP-WT, LNCaP-mK14, and LNCaP-K14 cells following treatment with DHT (10 nM), Dox (100 ng/mL), and the appropriate biotinylated ABP using fluorescent ABPs 20, 42 and 43. See Figure S26 for blot and gel quantification. […] Cultures were incubated for a further 24 h before the number of migrating cells was quantified.

Compound | targets labeled (probe selectivity) [1] | effect on activity of the other KLKs [2]
CCC[C@H](NC(=O)[C@H](CCC(N)=O)NC(=O)[C@H](CC(N)=O)NC(=O)CCCCCNC(=O)CCCC[C@@H]1SC[C@@H]2NC(=O)N[C@@H]21)C(=O)NC(c1ccc(C(N)=O)cc1)P(=O)(Oc1ccccc1)Oc1ccccc1 (stereo partly drawn) [compound 20] | single target | does not affect the activity of other KLKs
CC(C)(C)C(NC(=O)CCCCCNC(=O)CCCCC1SCC2NC(=O)NC21)C(=O)NC(CCN)C(=O)NC(Cc1ccc(O)cc1)C(=O)NC(c1ccc(NC(=N)N)cc1)P(=O)(Oc1ccccc1)Oc1ccccc1 (stereo not drawn) [compound 31, Tle-Dab-Tyr-Arg] | single target | does not affect the activity of other KLKs
CCC(NC(=O)C(CCN)NC(=O)C(Cc1ccc2ccccc2c1)NC(=O)CCCCCNC(=O)CCCCC1SCC2NC(=O)NC21)C(=O)NC(c1ccc(NC(=N)N)cc1)P(=O)(Oc1ccccc1)Oc1ccccc1 (stereo not drawn) [compound 39, 2Nal-Dab-Abu-Arg] | single target | significant decrease

From publication PMC9282638, “A Suite of Activity-Based Probes To Dissect the KLK Activome in Drug-Resistant Prostate Cancer” (Journal of the American Chemical Society, 2021)
